Assay results: US5635197A, “Treatment and prevention of prostatic cancer metastasis” (priority 1995, dated 1997)

Target: T1, Human Type I Steroid 5α-Reductase (Homo sapiens, UniProt P18405)
T1 construct: Preparation of Type I 5α-Reductase from Human Scalp; from tissue; host or cells: human scalp punch biopsies from hair transplant procedures; 100,000 x g pellet of skin homogenate
T1 sequence (P18405 1-259): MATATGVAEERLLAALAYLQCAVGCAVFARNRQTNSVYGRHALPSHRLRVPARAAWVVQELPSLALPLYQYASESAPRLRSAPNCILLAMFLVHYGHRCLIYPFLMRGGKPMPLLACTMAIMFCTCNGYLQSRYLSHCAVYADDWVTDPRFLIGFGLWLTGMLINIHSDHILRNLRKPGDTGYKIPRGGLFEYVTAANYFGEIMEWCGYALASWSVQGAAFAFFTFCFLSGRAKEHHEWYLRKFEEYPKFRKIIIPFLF
Experiment: Human Type I steroid 5α-reductase homogenate assay (conversion of [3H]-testosterone to [3H]-5α-dihydrotestosterone)
Format: biochemical
Details: 0.3 μM concentration; compared to control reaction mixtures; enzyme from human scalp, pH 7.5, 25°, 180 min
Description: Methodology of Human Type I Steroid 5α-Reductase Assays
Approximately 60-75 punches from one surgical procedure were used to generate an enzyme preparation. The subcutaneous tissue was cut away and discarded. The skin was frozen with liquid nitrogen and pulverized to powder. […] The homogenization procedure consisted of four 15 second pulses. Connective tissue was cleared from the probe with forceps between pulses. […] The pellet was resuspended by homogenization with a Dounce homogenizer using the same buffer solution. […] Aliquots of the enzyme preparation were stored at -80° until use.
The reaction was initiated by the addition of 0.5 mg of Type I 5α-reductase. The reaction mixture was incubated at 25° for 180 min, and terminated by the addition of 1 mL ice-cold stopping solution. […] The samples were prepared for high performance liquid chromatography by solid phase extraction. […] The reaction mixtures were then applied to the columns. The columns were subsequently washed with 5 mL of acetone:water (1:4), followed by 0.3 mL of methanol. The samples were then eluted with 3 mL of methanol and collected in 20 mL scintillation vials. Three mL of water was then added to each scintillation vial. […] The column temperature was maintained at 35° and the flow rate was 1.5 mL/min.

Row | percent inhibition of Type I 5AR [%] | Compound
1 | 86 | CN1C(=O)CC[C@]2(C)c3ccc(-c4ccc(-c5ccc(NC(=O)C(C)(C)C)s5)cc4)cc3CC[C@@H]12 [Example 222, (+)-(4aR)-(10bR)-4-methyl-8-(4-[(2-t-butylcarbonylamino]-5-thienyl]phenyl)-10b-methyl-1,2,3,4,4a,5,6,10b-octahydrobenzo[f]quinolin-3-one]
2 | 24 | (+)-(4aR)-(10bR)-4-methyl-8-(3-[1-benzyl-4-piperidinylcarboxamido]phenyl)-10b-methyl-1,2,3,4,4a,5,6,10b-octahydrobenzo[f]quinolin-3-one [Example 209]
3 | 13 | (+)-(4aR)-(10bR)-4-methyl-8-(3-t-butylcarboxamidophenyl)-10b-methyl-1,2,3,4,4a,5,6,10b-octahydrobenzo[f]quinolin-3-one [Example 34]
4 | 90 | (+)-(4aR)-(10bR)-4-methyl-8-benzyloxycarbonyl-10b-methyl-1,2,3,4,4a,5,6,10b-octahydrobenzo[f]quinolin-3-one [Example 144]
